The target of one assay is T1, GR (Homo sapiens, UniProt P04150).
T1 sequence (P04150 1-777): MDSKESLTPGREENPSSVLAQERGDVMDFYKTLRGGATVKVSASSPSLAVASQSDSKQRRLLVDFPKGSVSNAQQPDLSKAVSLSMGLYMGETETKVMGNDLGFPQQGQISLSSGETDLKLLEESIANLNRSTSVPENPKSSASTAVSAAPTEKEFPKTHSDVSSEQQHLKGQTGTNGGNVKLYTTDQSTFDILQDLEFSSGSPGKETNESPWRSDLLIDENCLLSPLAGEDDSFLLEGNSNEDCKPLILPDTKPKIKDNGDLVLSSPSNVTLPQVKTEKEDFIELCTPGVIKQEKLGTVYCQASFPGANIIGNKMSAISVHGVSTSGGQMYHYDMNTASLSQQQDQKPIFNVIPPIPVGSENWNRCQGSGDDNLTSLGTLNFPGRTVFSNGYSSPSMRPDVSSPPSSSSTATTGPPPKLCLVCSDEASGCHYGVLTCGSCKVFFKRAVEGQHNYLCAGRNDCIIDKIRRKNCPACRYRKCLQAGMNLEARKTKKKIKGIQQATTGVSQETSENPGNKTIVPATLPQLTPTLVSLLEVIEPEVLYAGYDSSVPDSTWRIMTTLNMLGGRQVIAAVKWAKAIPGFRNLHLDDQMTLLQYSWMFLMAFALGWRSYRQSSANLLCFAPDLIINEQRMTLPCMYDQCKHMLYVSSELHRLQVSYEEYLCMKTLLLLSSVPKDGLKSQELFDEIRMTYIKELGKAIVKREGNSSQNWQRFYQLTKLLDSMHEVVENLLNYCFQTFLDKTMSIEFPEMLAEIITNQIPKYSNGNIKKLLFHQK
The assay can be described thus: EMSA of GR-DNA binding in LNCaP-GR cells. In kind it is cell-based. Also noted: expressed in transfected cells; host or cells: LNCaP-GR (lentiviral GR); also DU145 and PC3 (endogenous GR). The following applies: CpdA 10^−5 M, 4 hours. In general terms: A gel shift assay detects complexes by their altered migration in electrophoresis.

Another assay deals with A375 cells. In kind it is cell-based, human. The conditions noted are these: CpdA 5×10^−6 M, 72 hours.
A further assay deals with PC3 cells. It counts as cell-based, human.
A further assay relates to DU145 cells. It counts as cell-based, human.
Assay [1] addresses T2, AR (Homo sapiens, UniProt P10275, T878A).
T2 construct: epithelial cells expressing endogenous AR, LNCaP prostate cells were studied; endogenous in cells; host or cells: LNCaP
T2 sequence (P10275 1-920 T878A): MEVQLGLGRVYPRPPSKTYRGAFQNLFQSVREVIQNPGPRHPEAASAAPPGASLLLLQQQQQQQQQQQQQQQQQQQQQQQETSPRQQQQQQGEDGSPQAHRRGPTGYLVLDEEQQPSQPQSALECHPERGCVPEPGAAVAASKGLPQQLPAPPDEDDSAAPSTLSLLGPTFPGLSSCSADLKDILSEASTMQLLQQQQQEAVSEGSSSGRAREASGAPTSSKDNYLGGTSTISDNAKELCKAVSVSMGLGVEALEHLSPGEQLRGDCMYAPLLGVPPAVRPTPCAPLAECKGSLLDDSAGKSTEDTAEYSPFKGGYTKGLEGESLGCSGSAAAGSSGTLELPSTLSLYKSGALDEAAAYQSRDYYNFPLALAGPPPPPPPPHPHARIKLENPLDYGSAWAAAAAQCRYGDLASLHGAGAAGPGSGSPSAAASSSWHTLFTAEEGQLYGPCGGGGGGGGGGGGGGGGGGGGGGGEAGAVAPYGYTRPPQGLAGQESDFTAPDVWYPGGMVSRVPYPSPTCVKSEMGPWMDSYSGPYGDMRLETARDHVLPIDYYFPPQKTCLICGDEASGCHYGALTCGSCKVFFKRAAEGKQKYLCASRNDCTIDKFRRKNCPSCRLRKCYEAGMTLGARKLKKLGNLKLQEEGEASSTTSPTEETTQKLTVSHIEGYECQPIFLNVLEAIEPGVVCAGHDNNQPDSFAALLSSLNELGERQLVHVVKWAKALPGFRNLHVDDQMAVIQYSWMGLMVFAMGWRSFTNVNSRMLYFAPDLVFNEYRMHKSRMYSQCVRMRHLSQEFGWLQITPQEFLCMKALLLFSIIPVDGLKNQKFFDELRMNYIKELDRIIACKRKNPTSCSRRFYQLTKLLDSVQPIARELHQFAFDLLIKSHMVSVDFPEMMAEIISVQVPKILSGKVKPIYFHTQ
In kind it is cell-based. The conditions noted are these: LNCaP cells, CpdA 2×10^−6 M, 24 hours, basal and DHT 10^−7 M.

For assay [2] the following is noted: rodents, proposed concentration 12.5 mg/kg; cited from earlier work.
In assay [3] the target is T2, AR. Put plainly: AR nuclear translocation, Western blot and immunofluorescence in LNCaP cells. In kind it is cell-based. The conditions noted are these: 16 hours. For orientation: In western blotting, separated proteins are transferred to a membrane and probed.
For a further assay, the system named is DU145 and PC3 cells. The assay can be described thus: Apoptosis by PARP cleavage, Western blotting. It counts as cell-based, human.
In a further assay the test system is LNCaP-AR^low cells. In kind it is cell-based, human. The following applies: CpdA 2×10^−6 M, 1-10 days.
The mark [4] stands for this setting: CpdA 10^−9 M−2×10^−5 M, 72 hours.

Turning to `CNCC(Cl)c1ccc(OC(C)=O)cc1.Cl` (stereo not drawn) [CpdA, 2-(4-acetoxyphenyl)-2-chloro-N-methyl-ethylammonium chloride], the GR-DNA binding result at GR is recorded as “constitutively inhibit glucocorticoid-induced GR-DNA binding”. In addition, the growth inhibition entry is on record as “strongly inhibited growth” with A375 cells and “resistant” in the assay with LNCaP-AR^low cells. For the same compound, the results for the “growth inhibition vs vehicle-treated control” value in the assay on PC3 cells and with DU145 cells were 65-85% and 60-65%, respectively. For the same compound, the “growth inhibition, concentration-dependent” value in the assay with PC3 cells (setting [4]) and in the assay on DU145 cells (setting [4]) was “strongly inhibit” in each case. Besides, at AR [1], the AR transcriptional activity entry was “inhibited basal and DHT-induced transcriptional activity of AR”. Moreover, in [2], the anti-inflammatory effect entry is “strong anti-inflammatory effect”. The AR nuclear translocation result on AR [3] is “induce AR nuclear translocation”. Moreover, the “treatment time after which apoptosis is induced (PARP cleavage)” value in the assay with DU145 and PC3 cells (CpdA 2×10^−6 M) is 6 to 8 days. Besides, in the assay on DU145 and PC3 cells (CpdA then TNFα 10 ng/ml for 16 hours), the “treatment time after which cells are sensitized to TNFα-induced apoptosis” value is 2 days.

Values taken from patent publication US10799475B2, “Substituted phenyl aziridine precursor analogs for inhibiting androgen-independent prostate cancer cell growth” (Northwestern University, priority 2007, dated 2020).
